This passage reports TGI and GI50 results from PubChem BioAssay (NCI).

Where “and” joins values, the source holds several entries; their conditions need not be identical. Equal values may be shown once.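 Compound exposure: 48 hours, 5 concentrations, 96-well plates. Here, GI50 denotes the concentration required for 50% inhibition of growth. TGI denotes the concentration required for complete inhibition of growth.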

Among the test systems are BT-549 breast; T-47D breast; MDA-N; MCF7 breast; LXFL 529 NSCLC; KM20L2 colon; DLD-1 colon.
What all share (test): NCI tumour cell line growth inhibition, 48 h

In the case of `O=C1C=CC(=O)c2c1ccc1c3ccccc3n(-c3cccc([N+](=O)[O-])c3)c21`, the TGI in the assay with BT-549 breast was 3.31 µM; in the assay with T-47D breast, 5.67 µM; with MDA-N it was 4.82 µM; in the assay with MCF7 breast, above 5.93 µM.
Turning to `CCC1CCc2c(c(=O)oc3c2cc(OC)c2cccc(OC)c23)C1` (centres undefined), the TGI with LXFL 529 NSCLC, in the assay with KM20L2 colon and in the assay on DLD-1 colon was above 100 µM throughout.
Regarding `COc1cc(OC)c(/C=C/c2c3ccccc3cc[n+]2C)c(OC)c1`, the GI50 with BT-549 breast was 1.58 µM; with T-47D breast, 0.541 µM; with MCF7 breast, 1.02 µM. In addition, the TGI was 21.8 µM in the assay on BT-549 breast, above 26.2 µM in the assay on T-47D breast and 18.2 µM with MCF7 breast.
As for `Cn1cc(C2=C(c3cccc(Br)c3)C(=O)NC2=O)c2ccccc21`, the GI50 with BT-549 breast is 15.1 µM; in the assay on T-47D breast, 8.11 µM; in the assay on MCF7 breast, 6.08 µM. Further, the TGI in the assay on BT-549 breast, in the assay with T-47D breast and with MCF7 breast was above 25 µM throughout.
Turning to `C#COc1cccc(Nc2c(C#N)cnc3ncc(NC(=O)CCl)cc23)c1`, the GI50 in the assay on BT-549 breast is above 62.5 µM; with T-47D breast, 23.3 µM; in the assay on MCF7 breast, 12.8 µM. For the same molecule, the TGI with BT-549 breast, in the assay on T-47D breast and in the assay on MCF7 breast was above 62.5 µM each time.
With `CC1(C)CC(=O)C(C=NC(=O)c2ccncc2)=C(O)C1`, the TGI in the assay with BT-549 breast, in the assay with MDA-N and in the assay on MCF7 breast was above 100 µM each time.
Turning to `Cc1nc(-[n+]2nc(-c3ccncc3)nn2-c2ccccc2)sc1C`, the figures for the TGI with BT-549 breast, in the assay on T-47D breast and with MCF7 breast were 41 µM, above 100 µM and above 100 µM, respectively.
For `CCN1C(=O)N(CC)C2C1NN=c1s/c(=C3\C(=O)N(CC(C)(C)C)c4ccccc43)c(=O)n12` (centres undefined), the figures for the GI50 in the assay with BT-549 breast, in the assay on T-47D breast and in the assay with MCF7 breast were 2.62 µM, 5.71 µM and 1.62 µM, respectively. In addition, the TGI was 9.65 µM with BT-549 breast, 53.7 µM in the assay with T-47D breast and 18.7 µM in the assay on MCF7 breast.
Take `CCOC(=O)/C=C(/C)Sc1cc(O)c2ccccc2c1O`: the GI50 was 2.93 µM with BT-549 breast, 2.23 µM in the assay with T-47D breast and 1.54 µM with MCF7 breast. Moreover, the TGI came to 10.5 µM in the assay with BT-549 breast, 13.1 µM in the assay with T-47D breast and 3.59 µM with MCF7 breast.
For the molecule `CCN(Cc1ccccc1C)c1ccc(CO)c(Cl)c1`, the GI50 with BT-549 breast was 15.8 µM; in the assay on T-47D breast, 0.244 µM; in the assay with MCF7 breast, 2 µM. Moreover, the TGI was 30.1 µM with BT-549 breast, 2.19 µM in the assay on T-47D breast and 14.7 µM in the assay on MCF7 breast.
On to `CC(=O)Oc1ccccc1C(=O)Nc1ncc([N+](=O)[O-])s1`, for which the GI50 in the assay with BT-549 breast was 1.97 µM; in the assay with T-47D breast, 2.88 µM; in the assay with MCF7 breast, 2.26 µM. Moreover, the TGI in the assay with T-47D breast is > 26.6 µM and 60.3 µM; in the assay with MDA-N it was above 90.1 µM; in the assay with MCF7 breast, 10.3 µM and > 100 µM.
As for `Cc1nn(C(=O)c2ccc(Cl)cc2)c2c1C(/C=C/c1ccccc1)SC(N)=N2` (centres undefined), the TGI with BT-549 breast, in the assay with T-47D breast, in the assay on MDA-N and with MCF7 breast was above 10 µM throughout.
Regarding `CC(C)(S)C(N)C(=O)O` (centres undefined), the results for the GI50 in the assay with BT-549 breast, with T-47D breast and in the assay with MCF7 breast were 1570 µM, 1170 µM and 994 µM, respectively. In addition, the TGI with BT-549 breast is 4110 µM and > 100 µM; in the assay on T-47D breast, 2680 µM and > 100 µM; in the assay on MDA-N it was above 100 µM; in the assay with MCF7 breast it was 2200 µM and > 100 µM.
As for `NC(=O)c1cc(S(=O)(=O)Nc2nnc(-c3ccccc3)c(-c3ccccc3)n2)c(SCc2ccccc2)cc1Cl`, the results for the GI50 in the assay with BT-549 breast, in the assay on T-47D breast and with MCF7 breast were above 53.1 µM, above 100 µM and 30.2 µM, respectively. In addition, the TGI with BT-549 breast was above 89.7 µM; in the assay on T-47D breast, above 100 µM; in the assay with MCF7 breast, above 66.4 µM.
As to `O=C1NC(=O)/C(=C\c2ccccc2)C2=C1CCCC2`, the GI50 is 4.13 µM in the assay on BT-549 breast, 10.2 µM with T-47D breast and 5.15 µM in the assay on MCF7 breast. In addition, the values for the TGI in the assay with BT-549 breast, in the assay with T-47D breast and in the assay with MCF7 breast were 16.4 µM, 29.9 µM and 25 µM, respectively.
`Cc1nn(C(=O)Cc2ccccc2)c2c1C(c1ccc(Cl)cc1)SC(N)=N2` (centres undefined): the TGI with BT-549 breast, in the assay on T-47D breast and with MCF7 breast was above 100 µM throughout.
Regarding `COC(=O)[C@@H](C)C[C@H](Cc1ccccc1)NC(=O)c1csc([C@@H](C[C@H](C(C)C)N(C)C(=O)[C@@H](NC(=O)[C@H]2CCCCN2C)C2CCCCC2)OC(C)=O)n1`, the GI50 with BT-549 breast was 0.000701 µM and 0.0025 µM. In the assay on MCF7 breast, this molecule came in with a TGI above 25 µM.
In the case of `CN(CCO)c1ccc(N2Cc3ccccc3OC3=C2C(=O)c2c(O)ccc(O)c2C3=O)cn1`, the GI50 in the assay on BT-549 breast is 0.177 µM; with T-47D breast it was 0.176 µM; in the assay with MCF7 breast, 0.0638 µM. For the same molecule, the TGI in the assay with BT-549 breast came to 0.386 µM; with T-47D breast, 0.577 µM; in the assay with MCF7 breast, 0.31 µM.
`NCCSc1nc(-c2ccccc2)c(-c2ccccc2)o1`: the TGI in the assay on BT-549 breast, in the assay with T-47D breast and in the assay on MCF7 breast was above 100 µM in each case.
On to `CN(C)CCNC(=O)c1ccc2nc3c(nc2c1)C(=O)c1ccccc1-3`, for which the TGI with BT-549 breast is 41.3 µM; with MDA-N it was 33.6 µM; with MCF7 breast it was above 100 µM.
In the case of `CCn1c(=O)c2c(=O)c3c4c(oc3oc2c2ccccc21)C(=O)c1ccccc1C4=O`, the GI50 in the assay with BT-549 breast is above 36 µM; in the assay with T-47D breast, 0.372 µM; in the assay with MCF7 breast it was above 100 µM. Further, the TGI in the assay on BT-549 breast is above 100 µM; in the assay on T-47D breast, 2.87 µM; in the assay with MCF7 breast it was above 100 µM.
For `NC(=O)OCCn1cc(-c2nc(-c3c[nH]c4ncccc34)cs2)c2ccccc21`, in the assay on BT-549 breast, the GI50 is 1.5 µM and the TGI was determined as 6.04 µM. In the assay with MCF7 breast, the GI50 is 0.989 µM and the TGI was 5.31 µM.
`COc1ccc(-c2coc3c4c(ccc3c2=O)OCO4)cc1OC`: the TGI in the assay with BT-549 breast, in the assay on T-47D breast, in the assay on MDA-N and in the assay with MCF7 breast was above 100 µM in each case.
